Laboratory results as given in PubChem BioAssay AID330 (DTP/NCI, 2004).
“And” between values parts separate entries of the source, which are not always exact repeats. Identical values can stand only once. Toxic doses and inconclusive results are not listed. Rule for the calls: active = survival T/C of 150% or more; inactive = T/C below 125% in these data.

Tested on: P388 leukemia ip, CD2F1 mice, survival T/C
Assay: NCI In Vivo Anticancer Drug Screen. Data for tumor model P388 Leukemia (intraperitoneal) in CD2F1 (CDF1) mice
Conditions: endpoint: median survival time, higher = longer survival
Outline: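 Mice carrying the transplanted tumor received test compound or vehicle. Survival was recorded in each group, and the value is the treated-group measurement divided by that of the vehicle-treated control group.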

[1] = dose: 60.0 mg/kg/injection, schedule: Q01DX005 (ip), vehicle: saline
[2] = dose: 120.0 mg/kg/injection, schedule: Q01DX005 (ip), vehicle: saline
[3] = dose: 100.0 mg/kg/injection, schedule: Q01DX009 (ip), vehicle: saline with Tween-80
[4] = dose: 12.5 mg/kg/injection, schedule: Q01DX005 (ip), vehicle: saline with Tween-80
[5] = dose: 25.0 mg/kg/injection, schedule: Q01DX005 (ip), vehicle: saline with Tween-80
[6] = dose: 50.0 mg/kg/injection, schedule: Q01DX005 (ip), vehicle: saline with Tween-80
[7] = dose: 50.0 mg/kg/injection, schedule: Q01DX009 (ip), vehicle: saline with Tween-80
[8] = dose: 60.0 mg/kg/injection, schedule: Q01DX005 (ip), vehicle: saline with Tween-80
[9] = dose: 50.0 mg/kg/injection, schedule: Q01DX009 (ip), vehicle: saline
[10] = dose: 100.0 mg/kg/injection, schedule: Q01DX009 (ip), vehicle: saline
[11] = dose: 200.0 mg/kg/injection, schedule: Q01DX009 (ip), vehicle: saline
[12] = dose: 12.5 mg/kg/injection, schedule: Q01DX009 (ip), vehicle: saline with Tween-80
[13] = dose: 25.0 mg/kg/injection, schedule: Q01DX009 (ip), vehicle: saline with Tween-80

Measured: T/C

COC(=O)CC1CC(CCO)=C(C)C1=O (configuration not stated)
inactive: [1] 101 % of control | [2] 99 % of control | dose: 240.0 mg/kg/injection, schedule: Q01DX005 (ip), vehicle: saline 100 % of control

CCOC(=O)c1cnc2cc3c(cc2c1Nc1ccccc1C(=O)OC)OCO3
inactive: dose: 50.0 mg/kg/injection, schedule: Q04DX002 (ip), vehicle: Klucel (hydroxypropylcellulose) (HPC) 101 % of control | dose: 100.0 mg/kg/injection, schedule: Q04DX002 (ip), vehicle: Klucel (hydroxypropylcellulose) (HPC) 101 % of control | dose: 200.0 mg/kg/injection, schedule: Q04DX002 (ip), vehicle: Klucel (hydroxypropylcellulose) (HPC) 97 % of control

CC(C)NC(=O)c1ccc(CN(O)Cc2ccc(C(=O)NC(C)C)cc2)cc1
inactive: dose: 25.0 mg/kg/injection, schedule: Q01DX009 (ip), vehicle: other 99 % of control | dose: 50.0 mg/kg/injection, schedule: Q01DX009 (ip), vehicle: other 99 % of control | dose: 100.0 mg/kg/injection, schedule: Q01DX009 (ip), vehicle: other 88 % of control | dose: 400.0 mg/kg/injection, schedule: Q01DX009 (ip), vehicle: other 97 % of control

CNS(=O)(=O)c1ccc2c(c1)nc(SC)n2C
inactive: [3] 100 % of control | dose: 200.0 mg/kg/injection, schedule: Q01DX009 (ip), vehicle: saline with Tween-80 100 % of control | dose: 400.0 mg/kg/injection, schedule: Q01DX009 (ip), vehicle: saline with Tween-80 95 % of control

C/C(=C(/O)c1ccccc1)c1nc2ccc(Cl)cc2[nH]c1=O
inactive: dose: 60.0 mg/kg/injection, schedule: Q01DX005 (ip), vehicle: Klucel + Tween-80 103 % of control | dose: 120.0 mg/kg/injection, schedule: Q01DX005 (ip), vehicle: Klucel + Tween-80 94 % of control | dose: 240.0 mg/kg/injection, schedule: Q01DX005 (ip), vehicle: Klucel + Tween-80 91 % of control

Cc1cccc2c1Oc1ccccc1C2NC(=O)c1ccccc1 (configuration not stated)
inactive: [4] 86 % of control | [5] 89 % of control | [6] 86 % of control and 88 % of control | dose: 200.0 mg/kg/injection, schedule: Q01DX005 (ip), vehicle: saline with Tween-80 87 % of control

C[O][Sn]([CH3])([CH3])[O][Sn]([CH3])([CH3])[Cl]
inactive: dose: 6.25 mg/kg/injection, schedule: Q04DX003 (ip), vehicle: saline 103 % of control and 106 % of control | dose: 12.5 mg/kg/injection, schedule: Q04DX003 (ip), vehicle: saline 100 % of control and 101 % of control and 96 % of control | dose: 25.0 mg/kg/injection, schedule: Q04DX003 (ip), vehicle: saline 99 % of control and 100 % of control and 109 % of control | dose: 50.0 mg/kg/injection, schedule: Q04DX003 (ip), vehicle: saline 102 % of control and 120 % of control and 97 % of control

O=C(NC(=O)C(F)(F)F)Nc1ccc(Cl)cc1
inactive: [7] 99 % of control | [3] 105 % of control

CC(C=O)[Se]c1ccccc1 (configuration not stated)
inactive: [8] 100 % of control

CCCCNc1ncc(S(=O)(=O)Cc2ccc3c(c2)OCO3)c(N)n1
inactive: dose: 100.0 mg/kg/injection, schedule: Q04DX002 (ip), vehicle: saline 94 % of control | dose: 200.0 mg/kg/injection, schedule: Q04DX002 (ip), vehicle: saline 100 % of control | dose: 400.0 mg/kg/injection, schedule: Q04DX002 (ip), vehicle: saline 90 % of control

CS(=O)(=O)OCCCCCCCCCCCN1CCOCC1
inactive: [6] 98 % of control | dose: 100.0 mg/kg/injection, schedule: Q01DX005 (ip), vehicle: saline with Tween-80 94 % of control

N#CCCCOCCOCCOCC(O)C(O)COCCOCCOCCCC#N (configuration not stated)
inactive: dose: 25.0 mg/kg/injection, schedule: Q01DX005 (ip), vehicle: suspension in saline 95 % of control | dose: 50.0 mg/kg/injection, schedule: Q01DX005 (ip), vehicle: suspension in saline 99 % of control | dose: 100.0 mg/kg/injection, schedule: Q01DX005 (ip), vehicle: suspension in saline 96 % of control | dose: 200.0 mg/kg/injection, schedule: Q01DX005 (ip), vehicle: suspension in saline 98 % of control

[Na+]
inactive: [9] 95 % of control | [10] 100 % of control | [11] 98 % of control | dose: 0.5 % in 0.5 ml injection vol, schedule: Q01DX009 (ip), vehicle: water 105 % of control and 96 % of control | dose: 1.0 % in 0.5 ml injection vol, schedule: Q01DX009 (ip), vehicle: water 100 % of control and 96 % of control | dose: 2.0 % in 0.5 ml injection vol, schedule: Q01DX009 (ip), vehicle: water 102 % of control and 106 % of control | dose: 3.12 % in 0.5 ml injection vol, schedule: Q01DX009 (ip), vehicle: water 101 % of control and 92 % of control | dose: 4.0 % in 0.5 ml injection vol, schedule: Q01DX009 (ip), vehicle: water 100 % of control and 90 % of control | dose: 6.25 % in 0.5 ml injection vol, schedule: Q01DX009 (ip), vehicle: water 108 % of control and 114 % of control | dose: 8.0 % in 0.5 ml injection vol, schedule: Q01DX009 (ip), vehicle: water 99 % of control and 104 % of control and 108 % of control

Clc1ccc2ncnc(Nc3ccccc3)c2c1
inactive: dose: 50.0 mg/kg/injection, schedule: Q01DX009 (ip), vehicle: Klucel (hydroxypropylcellulose) (HPC) 91 % of control | dose: 100.0 mg/kg/injection, schedule: Q01DX009 (ip), vehicle: Klucel (hydroxypropylcellulose) (HPC) 100 % of control | dose: 200.0 mg/kg/injection, schedule: Q01DX009 (ip), vehicle: Klucel (hydroxypropylcellulose) (HPC) 86 % of control

Fc1ccccc1C(Nc1nncs1)Nc1nncs1
inactive: dose: 15.0 mg/kg/injection, schedule: Q01DX005 (ip), vehicle: saline with Tween-80 95 % of control | dose: 30.0 mg/kg/injection, schedule: Q01DX005 (ip), vehicle: saline with Tween-80 94 % of control | [8] 102 % of control and 104 % of control

COC(=O)c1cc(-c2ccc(O)c(OC)c2)n2c(NC(=O)Nc3ccc(Cl)cc3)nnc2n1
inactive: [8] 91 % of control | dose: 120.0 mg/kg/injection, schedule: Q01DX005 (ip), vehicle: saline with Tween-80 91 % of control | dose: 240.0 mg/kg/injection, schedule: Q01DX005 (ip), vehicle: saline with Tween-80 91 % of control

CN(C)CCN(Cc1ccc(Cl)s1)c1ccccn1
inactive: dose: 50.0 mg/kg/injection, schedule: Q01DX005 (ip), vehicle: saline 101 % of control | dose: 100.0 mg/kg/injection, schedule: Q01DX005 (ip), vehicle: saline 99 % of control

CC(CN(CC(=O)O)CC(=O)O)N(CC(=O)O)CC(=O)O.[Cl][Pd][Cl] (configuration not stated)
inactive: [1] 94 % of control | [2] 91 % of control

COC1/C=C/OC2(C)Oc3c(C)c(O)c4c(O)c(c(/C=N/N(C)C(C)C(O)c5ccccc5)c(O)c4c3C2=O)NC(=O)C(C)=C/C=C/C(C)C(O)C(C)C(O)C(C)C(OC(C)=O)C1C (configuration not stated)
inactive: [12] 120 % of control | [13] 116 % of control | [7] 109 % of control and 116 % of control | [3] 111 % of control

Cc1cc2cc3c4c(nn5nnnc5c4c2o1)-c1ccccc1CC3
inactive: dose: 50.0 mg/kg/injection, schedule: Q01DX005 (ip), vehicle: Klucel (hydroxypropylcellulose) (HPC) 92 % of control | dose: 100.0 mg/kg/injection, schedule: Q01DX005 (ip), vehicle: Klucel (hydroxypropylcellulose) (HPC) 86 % of control | dose: 200.0 mg/kg/injection, schedule: Q01DX005 (ip), vehicle: Klucel (hydroxypropylcellulose) (HPC) 95 % of control

CC1=C(O)C(=O)C(C)=C(O)C1=O
inactive: dose: 12.5 mg/kg/injection, schedule: Q01DX001 (ip), vehicle: Klucel (hydroxypropylcellulose) (HPC) 112 % of control | dose: 25.0 mg/kg/injection, schedule: Q01DX001 (ip), vehicle: Klucel (hydroxypropylcellulose) (HPC) 112 % of control | dose: 50.0 mg/kg/injection, schedule: Q01DX001 (ip), vehicle: Klucel (hydroxypropylcellulose) (HPC) 111 % of control

OCCN1CCCN(CCCN2c3ccccc3Sc3ccc(C(F)(F)F)cc32)CC1
inactive: dose: 6.25 mg/kg/injection, schedule: Q01DX005 (ip), vehicle: saline with Tween-80 97 % of control | [4] 102 % of control | [5] 118 % of control

NC(=O)CCC(N)C(=O)O (configuration not stated)
inactive: [12] 105 % of control | [13] 119 % of control | [7] 112 % of control | [9] 113 % of control | [10] 101 % of control and 116 % of control | [11] 90 % of control and 109 % of control | dose: 400.0 mg/kg/injection, schedule: Q01DX009 (ip), vehicle: saline 109 % of control

C(/C=C/c1ccccc1)=C1SCCCS1
inactive: dose: 100.0 mg/kg/injection, schedule: Q04DX003 (ip), vehicle: saline with Tween-80 94 % of control | dose: 200.0 mg/kg/injection, schedule: Q04DX003 (ip), vehicle: saline with Tween-80 103 % of control | dose: 400.0 mg/kg/injection, schedule: Q04DX003 (ip), vehicle: saline with Tween-80 90 % of control
